Assay results reported in US10208081B2, “Bile acid derivatives as FXR/TGR5 agonists and methods of use thereof” (Enanta Pharmaceuticals, Inc., priority 2014, dated 2019).

Target: human FXR (NR1H4) (Homo sapiens (Human), UniProt Q96RI1)
Test: Human FXR (NR1H4) Assay (Gal4 promoter driven luciferase reporter, Indigo Bioscience kit IB00601)
Type: cell-based
Conditions: for Efficacy (%): efficacy normalized to CDCA set as 100%; for EC50: potency ranges
Source text: Assays Human FXR (NR1H4) Assay
Determination of a ligand mediated Gal4 promoter driven transactivation quantify ligand binding mediated activation of FXR. FXR Reporter Assay kit purchased from Indigo Bioscience (Catalogue number: IB00601) to determine the potency and efficacy of compound developed by Enanta that can induce FXR activation. The principle application of this reporter assay system is to quantify functional activity of human FXR. The assay utilizes non-human mammalian cells, CHO (Chinese hamster ovary) cells engineered to express human NR1H4 protein (referred to as FXR). Reporter cells also incorporate the cDNA encoding beetle luciferase which catalyzes the substrates and yields photon emission. Luminescence intensity of the reaction is quantified using a plate-reading luminometer, Envision. Reporter Cells include the luciferase reporter gene functionally linked to an FXR responsive promoter. Thus, quantifying changes in luciferase expression in the treated reporter cells provides a sensitive surrogate measure of the changes in FXR activity. […] The assay is according to the manufacturer's instructions. In brief, the assay was performed in white, 96 well plates using final volume of 100 ul containing cells with different doses of compounds. Retrieve Reporter Cells from −80° C. storage. Perform a rapid thaw of the frozen cells by transferring a 10 ml volume of 37° C. cell recovery medium into the tube of frozen cells. Recap the tube of Reporter Cells and immediately place it in a 37° C. water bath for 5-10 minutes. Retrieve the tube of Reporter Cell Suspension from the water bath. Sanitize the outside surface of the tube with a 70% alcohol swab, and then transfer it into the cell culture hood. Dispense 90 μl of cell suspension into each well of the 96-well Assay Plate. Transfer the plate into 37° C. incubator, allowing the cells adherent to the bottom of the well. Dilute compounds in Dilution Plate (DP), and administrate to cells at Assay Plate (AP). DMSO content of the samples was kept at 0.2%. Cells were incubated for additional 22 hours before luciferase activities were measured. Thirty minutes before intending to quantify FXR activity, remove Detection Substrate and Detection Buffer from the refrigerator and place them in a low-light area so that they may equilibrate to room temperature. Remove the plate's lid and discard all media contents by ejecting it into an appropriate waste container. Gently tap the inverted plate onto a clean absorbent paper towel to remove residual droplets. Cells will remain tightly adhered to well bottoms. Add 100 μl of luciferase detection reagent to each well of the assay plate. Allow the assay plate to rest at room temperature for at least 5 minutes following the addition of LDR. Set the instrument (Envision) to perform a single 5 second “plate shake” prior to reading the first assay well. Read time may be 0.5 second (500 mSec) per well.

Sequence of human FXR (NR1H4) (Q96RI1 whole entry, the tested form may be a part): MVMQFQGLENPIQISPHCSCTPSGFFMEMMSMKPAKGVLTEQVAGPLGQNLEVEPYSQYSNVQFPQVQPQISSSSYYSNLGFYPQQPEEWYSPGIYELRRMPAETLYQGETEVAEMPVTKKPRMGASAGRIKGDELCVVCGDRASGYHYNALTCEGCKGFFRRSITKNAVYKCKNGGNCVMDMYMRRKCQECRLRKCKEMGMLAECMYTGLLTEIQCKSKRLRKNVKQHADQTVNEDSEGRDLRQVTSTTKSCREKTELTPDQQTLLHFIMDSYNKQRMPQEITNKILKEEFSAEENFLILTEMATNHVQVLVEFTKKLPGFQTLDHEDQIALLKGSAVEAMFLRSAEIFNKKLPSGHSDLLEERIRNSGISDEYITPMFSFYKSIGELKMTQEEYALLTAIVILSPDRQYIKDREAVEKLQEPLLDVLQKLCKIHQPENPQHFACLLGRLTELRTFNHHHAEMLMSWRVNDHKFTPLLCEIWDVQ

SMILES	Efficacy (%)	EC50 [nM]
CC[C@H]1[C@@H](O)[C@@H]2[C@H](CC[C@]3(C)[C@@H]([C@H](C)CCNC(=O)NS(=O)(=O)c4cccc(C(C)(C)C)c4)CC[C@@H]23)[C@@]2(C)CC[C@@H](O)C[C@@H]12 [Example 53]	263	< 100
CC[C@H]1[C@@H](O)[C@@H]2[C@H](CC[C@]3(C)[C@@H]([C@H](C)CNC(=O)NS(=O)(=O)c4cccc(C(C)(C)C)c4)CC[C@@H]23)[C@@]2(C)CC[C@@H](O)C[C@@H]12 [Example 115]	291	100 to 1000
CC[C@H]1[C@@H](O)[C@@H]2[C@H](CC[C@]3(C)[C@@H]([C@H](C)CCNC(=O)NS(=O)(=O)c4ccc(-c5ccno5)cc4OC)CC[C@@H]23)[C@@]2(C)CC[C@@H](O)C[C@@H]12 [Example 73]	444	100 to 1000
CC[C@H]1[C@@H](O)[C@@H]2[C@H](CC[C@]3(C)[C@@H]([C@H](C)CCNC(=O)NS(=O)(=O)c4cccs4)CC[C@@H]23)[C@@]2(C)CC[C@@H](O)C[C@@H]12 [Example 21]	402	100 to 1000
CC[C@H]1[C@@H](O)[C@@H]2[C@H](CC[C@]3(C)[C@@H]([C@H](C)CCNC(=O)NS(=O)(=O)N4CCC5(CC4)CC5)CC[C@@H]23)[C@@]2(C)CC[C@@H](O)C[C@@H]12 [Example 86]	390	< 100
CC[C@H]1[C@@H](O)[C@@H]2[C@H](CC[C@]3(C)[C@@H]([C@H](C)CNC(=O)NS(=O)(=O)c4cccc(OC(F)(F)F)c4)CC[C@@H]23)[C@@]2(C)CC[C@@H](O)C[C@@H]12 [Example 116]	322	< 100
CC[C@H]1[C@@H](O)[C@@H]2[C@H](CC[C@]3(C)[C@@H]([C@H](C)CCCNC(=O)NS(=O)(=O)c4ccc5ccccc5c4)CC[C@@H]23)[C@@]2(C)CC[C@@H](O)C[C@@H]12 [Example 19]	323	100 to 1000
CC[C@H]1[C@@H](O)[C@@H]2[C@H](CC[C@]3(C)[C@@H]([C@H](C)CCNC(=O)NS(=O)(=O)c4cccc(Cl)c4)CC[C@@H]23)[C@@]2(C)CC[C@@H](O)C[C@@H]12 [Example 24]	421	< 100
CC[C@H]1[C@@H](O)[C@@H]2[C@H](CC[C@]3(C)[C@@H]([C@H](C)CCNC(=O)NS(=O)(=O)c4cc(F)cc(OC)c4)CC[C@@H]23)[C@@]2(C)CC[C@@H](O)C[C@@H]12 [Example 103]	328	< 100
CC[C@H]1[C@@H](O)[C@@H]2[C@H](CC[C@]3(C)[C@@H]([C@H](C)CCNC(=O)NS(=O)(=O)N4CCC(C)(C)CC4)CC[C@@H]23)[C@@]2(C)CC[C@@H](O)C[C@@H]12 [Example 65]	498	< 100
CC[C@H]1[C@@H](O)[C@@H]2[C@H](CC[C@]3(C)[C@@H]([C@H](C)CCNC(=O)NS(=O)(=O)C(C)(C)C)CC[C@@H]23)[C@@]2(C)CC[C@@H](O)C[C@@H]12 [Example 28]	323	< 100
CC[C@H]1[C@@H](O)[C@@H]2[C@H](CC[C@]3(C)[C@@H]([C@H](C)CCCCNS(=O)(=O)c4ccccc4)CC[C@@H]23)[C@@]2(C)CC[C@@H](O)C[C@@H]12 [Example 137]	105	1000 to 10000
CC[C@H]1[C@@H](O)[C@@H]2[C@H](CC[C@]3(C)[C@@H]([C@H](C)CCNC(=O)NS(=O)(=O)C4(C)CC4)CC[C@@H]23)[C@@]2(C)CC[C@@H](O)C[C@@H]12 [Example 46]	315	< 100
CC[C@H]1[C@@H](O)[C@@H]2[C@H](CC[C@]3(C)[C@@H]([C@H](C)CCNC(=O)NS(=O)(=O)N4[C@H](C)CCC[C@@H]4C)CC[C@@H]23)[C@@]2(C)CC[C@@H](O)C[C@@H]12 [Example 96]	387	< 100
CC[C@H]1[C@@H](O)[C@@H]2[C@H](CC[C@]3(C)[C@@H]([C@H](C)CCNC(=O)NS(=O)(=O)c4cnccn4)CC[C@@H]23)[C@@]2(C)CC[C@@H](O)C[C@@H]12 [Example 64]	334	1000 to 10000
CC[C@H]1[C@@H](O)[C@@H]2[C@H](CC[C@]3(C)[C@@H]([C@H](C)CCNC(=O)NS(=O)(=O)c4ccc(-c5ccccc5)cc4)CC[C@@H]23)[C@@]2(C)CC[C@@H](O)C[C@@H]12 [Example 54]	273	< 100
CC[C@H]1[C@@H](O)[C@@H]2[C@H](CC[C@]3(C)[C@@H]([C@H](C)CCNC(=O)NS(=O)(=O)c4cccc5ncccc45)CC[C@@H]23)[C@@]2(C)CC[C@@H](O)C[C@@H]12 [Example 107]	311	100 to 1000
CC[C@H]1[C@@H](O)[C@@H]2[C@H](CC[C@]3(C)[C@@H]([C@H](C)CCNS(=O)(=O)CC(=O)O)CC[C@@H]23)[C@@]2(C)CC[C@@H](O)C[C@@H]12 [Example 132]	7	1000 to 10000
CC[C@H]1[C@@H](O)[C@@H]2[C@H](CC[C@]3(C)[C@@H]([C@H](C)CCNC(=O)NS(=O)(=O)c4ccc(C(C)(C)C)cc4)CC[C@@H]23)[C@@]2(C)CC[C@@H](O)C[C@@H]12 [Example 3]	396	< 100
CC[C@H]1[C@@H](O)[C@@H]2[C@H](CC[C@]3(C)[C@@H]([C@H](C)CCNC(=O)NS(=O)(=O)c4ccc(C5CCCCC5)cc4)CC[C@@H]23)[C@@]2(C)CC[C@@H](O)C[C@@H]12 [Example 59]	344	100 to 1000
CC[C@H]1[C@@H](O)[C@@H]2[C@H](CC[C@]3(C)[C@@H]([C@H](C)CCNC(=O)NS(=O)(=O)c4ccc(OC(F)(F)F)cc4)CC[C@@H]23)[C@@]2(C)CC[C@@H](O)C[C@@H]12 [Example 2]	300	< 100
CC[C@H]1[C@@H](O)[C@@H]2[C@H](CC[C@]3(C)[C@@H]([C@H](C)CCNC(=O)NS(=O)(=O)N4CCS(=O)(=O)CC4)CC[C@@H]23)[C@@]2(C)CC[C@@H](O)C[C@@H]12 [Example 83]	348	1000 to 10000
CC[C@H]1[C@@H](O)[C@@H]2[C@H](CC[C@]3(C)[C@@H]([C@H](C)CCNC(=O)NC(C)C)CC[C@@H]23)[C@@]2(C)CC[C@@H](O)C[C@@H]12 [Example 7]	259	1000 to 10000
CC[C@H]1[C@@H](O)[C@@H]2[C@H](CC[C@]3(C)[C@@H]([C@H](C)CCNC(=O)NS(=O)(=O)c4ccc(C)c(F)c4)CC[C@@H]23)[C@@]2(C)CC[C@@H](O)C[C@@H]12 [Example 16]	265	< 100
CC[C@H]1[C@@H](O)[C@@H]2[C@H](CC[C@]3(C)[C@@H]([C@H](C)CNS(=O)(=O)c4cccc(N5CCCCC5)c4)CC[C@@H]23)[C@@]2(C)CC[C@@H](O)C[C@@H]12 [Example 142]	7	
CC[C@H]1[C@@H](O)[C@@H]2[C@H](CC[C@]3(C)[C@@H]([C@H](C)CCNC(=O)NS(=O)(=O)c4ccc(C(C)(C)CO)cc4)CC[C@@H]23)[C@@]2(C)CC[C@@H](O)C[C@@H]12 [Example 69]	490	< 100
CC[C@H]1[C@@H](O)[C@@H]2[C@H](CC[C@]3(C)[C@@H]([C@H](C)CCNC(=O)NS(=O)(=O)C4CCC(C)(C)CC4)CC[C@@H]23)[C@@]2(C)CC[C@@H](O)C[C@@H]12 [Example 101]	244	< 100
CC[C@H]1[C@@H](O)[C@@H]2[C@H](CC[C@]3(C)[C@@H]([C@H](C)CCNC(=O)NS(=O)(=O)NC)CC[C@@H]23)[C@@]2(C)CC[C@@H](O)C[C@@H]12 [Example 125]	256	1000 to 10000
CC[C@H]1[C@@H](O)[C@@H]2[C@H](CC[C@]3(C)[C@@H]([C@H](C)CCNC(=O)NS(=O)(=O)c4cccc(C)c4)CC[C@@H]23)[C@@]2(C)CC[C@@H](O)C[C@@H]12 [Example 13]	245	< 100
CC[C@H]1[C@@H](O)[C@@H]2[C@H](CC[C@]3(C)[C@@H]([C@H](C)CCNC(=O)NS(=O)(=O)N(C(C)C)C(C)C)CC[C@@H]23)[C@@]2(C)CC[C@@H](O)C[C@@H]12 [Example 52]	281	100 to 1000
